These results are taken from patent US7772425B2, “Vitamin D receptor modulators” (Eli Lilly and Company, priority 2002, dated 2010).

“And” between values parts separate entries of the source, which are not always exact repeats. Equal values may be shown once. Read-outs that look alike come from different tables or passages of the source.

Series [1] relates to KERtr cells (Human skin keratinocyte). In words: Keratinocyte proliferation assay. The note with it: BrdU incorporation, read-out: Kera. Prolif. IC50. The class given is cell-based. The protocol:
5. The Keratinocyte Proliferation Assay
This Assay is indicative for the treatment of psoriasis.
(5) The Keratinocyte Proliferation Assay:
KERtr cells (Human skin keratinocyte transformed with a retrovirus vector, obtained from ATCC) were plated in 96-well flat-bottomed plates (3000 cells/well) in 100 μl keratinocyte serum free medium supplemented with bovine pituitary extract in the absence of EGF (Life Technologies, Rockville, Md.) and incubated at 37° C. for two days. The cells were treated with various concentrations of VDR ligands (ten-fold serial dilution from 10,000 nM to 0.1 nM in triplicate), dissolved in 100 μl keratinocyte serum free medium supplemented with bovine pituitary extract in the absence of EGF and incubated at 37° C. for 72 hr. BrdU (5-bromo-2′-deoxyuridine) incorporation was analyzed as a measure of DNA replication (Cell proliferation ELISA kit, Roche Diagnostics, Indianapolis, Ind.) and absorbance was measured at 405 nm. Potency values (IC50) values were determined as the concentration (nM) of compound that elicited a half-maximal response.
For orientation: Uptake of a labelled nucleoside into DNA is a usual measure of proliferation.

The test system of series [2] is female DBF mice. In words: Mouse hypercalcemia assay. The class given is in vivo. The settings on record: orally via gavage for 6 days; serum ionized calcium 6 hours after last dosing. The text has this:
4. The Mouse Hypercalcemia Assay
(4) Materials and Method for The Mouse Hypercalcemia Assay: […]

Series [3] has as its system IL-10. Kind of series: human IL-10 induction assay in PBMCs. The note with it: TPA/PHA treated human PBMCs, IL-10 immunoassay of supernatant. The class given is cell-based. The text has this: The evaluation of the novel compounds of the invention for psoriasis is done using the Keratinocyte Proliferation Assay in combination with other assays that measure inhibition of IL-2 production and stimulation of IL-10 production in peripheral blood mononuclear cells (PBMCs).
6. The IL-10 Induction Assay
This is an in vitro efficacy assay for psoriasis, abscess and adhesion. Psoriasis involves both keratinocytes and immune cells. IL-10 is a unique cytokine because it is anti-inflammatory and immunosuppressive. This assay tells us whether a VDRM is able to function as an agonist in PBMCs (primary blood mononuclear cells) or not. A lower EC50 value is desirable in this assay since a compound with a lower EC50 value will be a better agonist in PBMCs.
(6) Materials and Method for human IL-10 Induction Assay:
Isolation of peripheral blood mononuclear cells (PBMCs):
• A. Collect 50 ml of human blood and dilute with media, RPMI-1640. • B. Prepare sterile tubes with ficol. • C. Add diluted blood to tubes. • D. Centrifuge. • E. Discard the top layer and collect the cells from middle layer. • F. Divide all cells into four tubes and add media. • G. Centrifuge. • H. Aspirate off media and resuspend. • I. Collect all cells • J. Centrifuge. at 1200 rpm for 10 minutes. • K. Resuspend in RPMI-1640 with 2% FBS and count cells Stimulation of PBMC: • L. Prepare TPA in DMSO. • M. Dissolve PHA in water. • N. Plate TPA/PHA treated PBMCs in well plates. • O. Incubate. Treatment: • P. Prepare all compound dilutions in plain RPMI-1640 media. • Q. Add diluted compound. • R. Incubate. Sample Collection and assay: • S. Remove all the cells by centrifugation and assay the supernatant for IL-10 by immunoassay. • 1) T. Perform IL-10 assay using anti-human IL-10 antibody coated beads, as described by the manufacturer (Linco Research Inc., St. Charles, Mo.).

Series [4] relates to rat osteocalcin promoter. In words: OCN (osteocalcin) promoter assay in RG-15 (ROS 17/2.8) cells. It is filed as cell-based. The note with it: 48 hr treatment, luciferase. On the procedure:
3. The OCN (Osteocalcin) Promoter Assay
The OCN Promoter Assay is an indicator and marker for osteoporosis. […] Preferred assay results are less than 50 nM.
(3) Materials and Method for The OCN Promoter Assay:
The activation of osteocalcin by VDR ligands was evaluated in a rat osteoblast-like cell line RG-15 (ROS 17/2.8) stably expressing rat osteocalcin promoter fused with luciferase reporter gene. […] Confluent RG-15 cells maintained in DMEM/F-12 medium (3:1) containing 5% FBS, 300 μg/ml G418 and at 37° C. under 5% CO2/95% air atmosphere were trypsinized (0.25% trypsin) and plated into white opaque 96-well cell culture plates (25000 cells/well). After 24 hr, cells (in DMEM/F-12 medium+2% FBS) were treated with various concentrations of compounds, dissolved in DMSO. The final DMSO concentration remained at 0.01% (v/v). After 48 hr treatment, the medium was removed, cells were lysed with 50 μl of lysis buffer (From Luciferase reporter assay system, Roche Diagnostics, Indianapolis, Ind.) and assayed for luciferase activity using the Luciferase Reporter Gene Assay kit from Boehringer Mannheim as per manufacturer's specifications.

The mark [5] stands for this setting: Homo sapiens, Keratinocyte, 72 h.

As a reminder, the IC50 is the concentration that gives 50% inhibition. For `CCC(CC)(c1ccc(CCC(=O)N(C)C)c(C)c1)c1ccc(OCC(O)C(C)(C)C)c(C)c1` (stereo not shown) [Ex. 8, 3′-[4-(2-hydroxy-3,3-dimethylbutoxy)-3-methylphenyl]-3′-[4-(2-dimethylcarbamoylethyl)-3-methylphenyl]pentane], in series [1] (setting [5]), the IC50 was 0.33 µM. Further, in series [2], the “Mouse Hypercal” value was 100 µg/kg/day.
Consider `CCC(CC)(c1ccc(COCC(=O)O)c(C)c1)c1ccc(OCC(O)C(C)(C)C)c(C)c1` (single isomer, unassigned) [Ex. 33, (4-{1-ethyl-1-[4-(2-hydroxy-3,3-dimethyl-butoxy)-3-methyl-phenyl]-propyl}-2-methyl-benzyloxy)-acetic acid], for which the IC50 was found to be 0.006 µM in series [1] (setting [5]) and 0.019 µM in series [3] (Homo sapiens, PBMC). Besides, the “Mouse Hypercal” value in series [2] was below 300 µg/kg/day.
In the same order, the values of `CCC(CC)(c1ccc(C(=O)O)cc1)c1ccc(OCC(=O)C(C)(C)C)c(C)c1` [Ex. 21, 4-{1-[4-(3,3-Dimethyl-2-oxo-butoxy)-3-methyl-phenyl]-1-ethyl-propyl}-benzoic acid] are 0.223 µM, 1.05 µM and 6000 µg/kg/day.
As to `CCC(CC)(c1ccc(OCC(=O)C(C)(C)C)c(C)c1)c1ccc(C(=O)O)c(C)c1` [Ex. 17, 4-{1-[4-(3,3-dimethyl-2-oxobutoxy)-3-methylphenyl]-1-ethylpropyl}-2-methylbenzoic acid], the IC50 in series [1] (setting [5]) was found to be 1 µM. The “Mouse Hypercal” value in series [2] was above 3000 µg/kg/day.
In the case of `CCC(CC)(c1ccc(OC(C)C(O)C(C)(C)C)c(C)c1)c1ccc(C(=O)N(C)CC(=O)O)c(C)c1` (single isomer, unassigned) [Ex. 53, [(4-{1-Ethyl-1-[4-(2-hydroxy-1,3,3-trimethyl-butoxy)-3-methyl-phenyl]-propyl}-2-methyl-benzoyl)-methyl-amino]-acetic acid], in series [1] (72 hr), the IC50 stood at 0.224 µM. For the same molecule, in series [2], the “Mouse Hypercal” value is above 3000 µg/kg/day.
A word on the EC50: it is the concentration at which the effect is half-maximal. Take `CCC(CC)(c1ccc(OC(C)C(O)C(C)(C)C)c(C)c1)c1ccc(C(=O)O)c(C)c1` (racemic) [Ex. 28, 4-{1-Ethyl-1-[4-(2-hydroxy-1,3,3-trimethyl-butoxy)-3-methyl-phenyl]-propyl}-2-methyl-benzoic acid]: the IC50 in series [1] (setting [5]) came out at 0.24 µM. Besides, the EC50 in series [4] turned out to be 0.084 µM; in series [4] (Rattus norvegicus, 48 h), 0.106 µM.
Consider `CCC(CC)(c1ccc(OCC(=O)C(C)(C)C)c(C)c1)c1ccc(OCC(=O)C(C)(C)C)c(C)c1` [DD, reference compound], for which the IC50 in series [1] (setting [5]) amounted to 1.06 µM. In addition, the “Mouse Hypercal” value in series [2] is 1000 µg/kg/day. In series [4] (Rattus norvegicus, 48 h), the EC50 amounted to 0.0311 µM.
For `CCC(CC)(c1ccc(OC(C)C(O)C(C)(C)C)c(C)c1)c1ccc(C(=O)Nc2nnn[nH]2)c(C)c1` (single isomer, unassigned) [Ex. 30, 3′-[4-(2-hydroxy-1,3,3-trimethylbutoxy)-3-methylphenyl]-3′-[4-(tetrazol-5-ylaminocarbonyl)-3-methylphenyl]pentane], the IC50 in series [1] (72 hr) came out at 0.02 µM; in series [3], 0.123 µM. In addition, the “Mouse Hypercal” value in series [2] is 1000 µg/kg/day.
On to `CCC(CC)(c1ccc(OC(C)C(O)C(C)(C)C)c(C)c1)c1ccc(C(=O)Nc2nnn[nH]2)c(C)c1` (single isomer, unassigned) [Ex. 29, 3′-[4-(2-hydroxy-1,3,3-trimethylbutoxy)-3-methylphenyl]-3′-[4-(tetrazol-5-ylaminocarbonyl)-3-methylphenyl]pentane], for which the IC50 in series [1] (72 hr) was determined as 0.049 µM; in series [3] (Homo sapiens, PBMC), 0.153 µM. For the same molecule, the “Mouse Hypercal” value in series [2] was 3000 µg/kg/day.
In the case of `CCC(CC)(c1ccc(CCC(=O)N(C)C)c(C)c1)c1ccc(OCC(=O)C(C)(C)C)c(C)c1` [Ex. 7, 3′-[4-(2-oxo-3,3-dimethylbutoxy)-3-methylphenyl]-3′-[4-(2-dimethylcarbamoylethyl)-3-methylphenyl]pentane], the IC50 in series [1] (setting [5]) amounted to 0.018 µM. In addition, the EC50 in series [4] (Rattus norvegicus, 48 h) was determined as 0.004 µM.
On to `CCC(CC)(c1ccc(OCC(O)C(C)(C)C)c(C)c1)c1ccc(C(=O)N(C)CC(=O)O)c(C)c1` (single isomer, unassigned) [Ex. 18, [(4-{1-ethyl-1-[4-(2-hydroxy-3,3-dimethyl-butoxy)-3-methyl-phenyl]-propyl}-2-methyl-benzoyl)-methyl-amino]-acetic acid], for which the values for the IC50 in series [1] (72 hr) and in series [3] were 1 µM and 0.047 µM, respectively. In addition, in series [2], the “Mouse Hypercal” value is 1000 µg/kg/day.
As for `CCC(CC)(c1ccc(OCC(O)C(C)(C)C)c(C)c1)c1ccc(C(=O)NS(C)(=O)=O)c(C)c1` (stereo not shown) [Ex. 5], the IC50 in series [1] (setting [5]) came out at 0.375 µM. Moreover, the “Mouse Hypercal” value in series [2] is 100 µg/kg/day. In addition, the EC50 in series [4] (Rattus norvegicus, 48 h) was determined as 0.042 µM.
As to `CCC(CC)(c1ccc(OCC(O)C(C)(C)C)c(C)c1)c1ccc(C(=O)NCCS(C)(=O)=O)c(C)c1` (single isomer, unassigned) [Ex. 15A, 4-{1-ethyl-1-[4-(2-hydroxy-3,3-dimethylbutoxy)-3-methylphenyl]propyl}-N-(2-methanesulfonylethyl)-2-methylbenzamide], the IC50 in series [1] (setting [5]) is 0.117 µM. Further, the “Mouse Hypercal” value in series [2] is 1500 µg/kg/day. Also, in series [4], the EC50 is 0.035 µM and 0.043 µM.
In the case of `CCC(CC)(c1ccc(C(=O)O)cc1)c1ccc(OCC(O)C(C)(C)C)c(Cl)c1` (single isomer, unassigned) [Ex. 36, 3′-[3-chloro-4-(2-hydroxy-3,3-dimethylbutoxy)phenyl]-3′-[4-carboxyphenyl]pentane], the IC50 in series [1] (72 hr) was 0.139 µM. The “Mouse Hypercal” value in series [2] was above 300 µg/kg/day.
For `CCC(CC)(c1ccc(OC(C)C(O)C(C)(C)C)c(C)c1)c1ccc(C(=O)N[C@H](C)C(=O)O)c(C)c1` (stereo partly shown) [Ex. 48, (D)-2-(4-{1-ethyl-1-[4-(2-hydroxy-1,3,3-trimethyl-butoxy)-3-methyl-phenyl]-propyl}-2-methyl-benzoylamino)-propionic acid] the same measures were 1 µM and below 1000 µg/kg/day.
With `CCC(CC)(c1ccc(/C=C/C(=O)N(C)C)c(C)c1)c1ccc(OCC(O)C(C)(C)C)c(C)c1` (stereo not shown) [Ex. 9, 3′-[4-(2-hydroxy-3,3-dimethylbutoxy)-3-methylphenyl]-3′-[4-(2-dimethylcarbamoyl-t-ethylidene)-3-methylphenyl]pentane], the IC50 in series [1] (setting [5]) was determined as 0.985 µM. For the same molecule, the EC50 in series [4] was determined as 0.006 µM; in series [4] (Rattus norvegicus, 48 h), 0.007 µM.
On to `CCC(CC)(c1ccc(OC(C)C(O)C(C)(C)C)c(C)c1)c1ccc(C(=O)OC)c(C)c1` (single isomer, unassigned) [Ex. 10Db, 3′-[4-(2-hydroxy-1,3,3-trimethylbutoxy)-3-methylphenyl]-3′-[4-methoxycarbonyl-3-methylphenyl]pentane], for which the IC50 in series [1] (72 hr) came to 1 µM. In addition, in series [4], the EC50 stood at 0.015 µM.
Regarding `CCC(CC)(c1ccc(OC(C)C(O)C(C)(C)C)c(C)c1)c1ccc(C(=O)N[C@@H](C)C(=O)O)c(C)c1` (stereo partly shown) [Ex. 47, (L)-2-(4-{1-Ethyl-1-[4-(2-hydroxy-1,3,3-trimethyl-butoxy)-3-methyl-phenyl]-propyl}-2-methyl-benzoylamino)-propionic acid], in series [1] (setting [5]), the IC50 amounted to 1 µM. The “Mouse Hypercal” value in series [2] is 3000 µg/kg/day.
